# Measurements from patent US20200253211A1, “PHOTODYNAMIC INHIBITION OF MICROBIAL PATHOGENS IN PLANTS” (SUNCOR ENERGY INC, priority 2017, published 2020).
# Experiments:
# [1] = test system: Alternaria solani mycelia; assay: Photodynamic inhibition of Alternaria solani mycelia, percentage of dead samples after 7 days on agar; assay type: cell-based
# Description: (§1) In the experiments, Alternaria solani mycelia were grown in liquid medium for 24 hours. Small spheres of the mycelia (average diameter 2 mm) were incubated for 100 minutes with 100 μM of Mg-Chlorophyllin with 0 to 5 mM of Disodium-EDTA. Samples were illuminated with 395 nm (fluence 106.6 J cm^−2) for 120 mins and the radial growth of mycelial patches after 7 days on agar medium was measured. A sample was considered dead, if there was no growth observable after 7 days on agar plates.
# as §1, with “Chlorin E6” for “100 μM of Mg-Chlorophyllin”, “or without” for “0 to”, “disodium-EDTA.” for “Disodium-EDTA.”
# The protocol for the PDI of A. solani was as follows (for Experiment 2 and 5): • Grow A. solani on tomato-agar for some days. • Transfer parts of the growing mycelium form the edge of the A. solani (no conidia) to liquid tomato medium. • Incubate overnight at 26° C. under constant agitation. • Transfer the grown mycelia (spheres of mycelia, approximately 2 mm in diameter) to 24 well plates. • Add 500 microlitres of the PS to the well (PBS for the Co and light only controls). • Incubate under agitation for 100 minutes. • Illuminate under agitation for 120 minutes. • Transfer the treated mycelia to tomato-agar plates and incubate for one week at room temperature. • Evaluate by counting of dead samples.
# Botrytis cinerea mycelia = assay: Photodynamic inhibition of Botrytis cinerea mycelia, percentage of dead samples after 7 days on agar; assay type: cell-based
# Description: as §1, with “Botrytis cinerea” for “Alternaria solani”, “48” for “24”, “with” for “with 100 μM of”, “or without” for “0 to”, “mM” for “mM of”, “minutes” for “mins”
# as §1, with “Botrytis cinerea” for “Alternaria solani”, “48” for “24”, “with” for “with 100 μM of”, “or without” for “0 to”, “EDTA (calcium or disodium).” for “of Disodium-EDTA.”, “min” for “mins”
# as §1, with “Botrytis cinerea” for “Alternaria solani”, “48” for “24”, “with” for “with 100 μM of”, “or without Baypure DS100” for “0 to 5 mM of Disodium-EDTA.”, “min” for “mins”
# The protocol for the PDI of B. cinerea was as follows (for experiments 3 and 4 described above): • Grow B. cinerea on malt-peptone-agar for some days. • Transfer spores of B. cinerea to liquid malt-peptone medium. • Incubate for 2-3 days at 26° C. under constant agitation. • Transfer the grown mycelia (spheres of mycelia, approximately 2 mm diameter) to 24 well plates. • Add 500 μl of the PS to the well. • Incubate under agitation for 100 minutes in the dark. • Illuminate under agitation for 120 minutes. • Transfer the treated mycelia to malt-peptone-agar plates and incubate for one week at room temperature. • Evaluate by counting of dead samples.
Compound,"dead % ([1]; Table 2, Mg-Chlorophyllin 100 μM without EDTA, in light) [%]","dead % (Botrytis cinerea mycelia; Table 3, Mg-Chlorophyllin 10 μM alone, in light) [%]","dead % (Botrytis cinerea mycelia; Table 3, Mg-Chlorophyllin 100 μM alone, in light) [%]","dead % (Botrytis cinerea mycelia; Table 4, Mg-Chlorophyllin 100 μM alone, in light) [%]","Percentage of dead samples [%] (Botrytis cinerea mycelia; Table 27, MgChln 100 μM, with light)","dead % ([1]; Table 2, EDTA 5 mM alone, in light) [%]","dead % ([1]; Table 2, EDTA 5 mM alone, no light) [%]","dead % ([1]; Table 2, EDTA 50 mM alone, in light) [%]","dead % ([1]; Table 2, EDTA 50 mM alone, no light) [%]","dead % ([1]; Table 2, EDTA 100 mM alone, in light) [%]","dead % ([1]; Table 2, EDTA 100 mM alone, no light) [%]","dead % ([1]; Table 2, EDTA 500 mM alone, in light) [%]","dead % ([1]; Table 2, EDTA 500 mM alone, no light) [%]","dead % ([1]; Table 5, light, 5 mM Na-EDTA alone) [%]","dead % ([1]; Table 5, no light, 5 mM Na-EDTA alone) [%]","dead % (Botrytis cinerea mycelia; Table 3, EDTA 5 mM alone, in dark) [%]","dead % (Botrytis cinerea mycelia; Table 3, EDTA 5 mM alone, with light) [%]","dead % (Botrytis cinerea mycelia; Table 4, EDTA-Na 5 mM alone, with light) [%]"
"C=Cc1c(C)c2cc3nc(c(CC(=O)[O-])c4[n-]c(cc5nc(cc1[n-]2)C(C)=C5CC)c(C)c4C(=O)[O-])C(CCC(=O)[O-])C3C.[Mg+2].[Na+].[Na+].[Na+] (stereo not drawn) [Mg-Chlorophyllin, Mg-chlorophyllin]",11.5,0,0,0,0,–,–,–,–,–,–,–,–,–,–,–,–,–
"O=C(O)CN(CCN(CC(=O)O)CC(=O)O)CC(=O)O [EDTA, disodium EDTA]",–,–,–,–,–,0,0,0,0,0,11.1,0,11.1,0,0,0,0,0
